# Measured values reported in patent US12516099B2, “Processes for generating engineered cells and compositions thereof” (Juno Therapeutics, Inc., priority 2018, dated 2026).
# Columns and labels:
# CD27 and CCR7 = experiment: Surface CD27 and CCR7 phenotype of T cells produced with Compound 63; type: cell-based, human; conditions: CD8+ and CD4+ T cells
# Protocol: (§1) Thawed cells generated by the process described were assessed for a marker of apoptosis (e.g., percentage of caspase positive CAR-T cells), phenotypic profile, and ability to produce intracellular cytokines following stimulation with PMA/Ionomycin and a Golgi Inhibitor. […] Thawed cells also were stained for surface expression of CD27 and CCR7 by flow cytometry.
# CAR-T cells = experiment: Apoptosis marker (intracellular caspase) in thawed CAR-T cells; type: cell-based, human; conditions: vs cells not incubated with compound 63
# Protocol: as §1
# mTOR = biological target: T1, mTOR (Homo sapiens, UniProt P42345); experiment: Intracellular S6 phosphorylation in engineered T cells produced with mTOR kinase inhibitor; type: cell-based; conditions: 1 μM Compound 63 during process; CD8+ memory subsets
# T1 construct: endogenous in cells; host or cells: primary human CD4+ and CD8+ T cells transduced with an anti-CD19 CAR
# Protocol: (§2) CD4+ and CD8+ T cells were isolated by immunoaffinity-based enrichment from leukapheresis samples from human donor subjects. At day 1, isolated CD4+ and CD8+ T cells were mixed 1:1 and stimulated with an anti-CD3/anti-CD28 oligomeric stimulatory reagent generated as described in Example 2 in serum-free media supplemented with recombinant IL-2 (100 IU/mL), recombinant IL-7 (600 IU/mL), and recombinant IL-15 (100 IU/mL) with or without 1 μM of 2-(3-hydroxyphenyl)-9-(2-isopropylphenyl)-8-oxo-8,9-dihydro-7H-purine-6-carboxamide (Compound 63). The T cells cultured with our without Compound 63 were incubated overnight (approximately 24 hr) at 37° C., and were then transduced in serum-free culture media with our without Compound 63 ([…]) with a lentiviral vector encoding an anti-CD19 CAR. […]
# (§3) The cryofrozen engineered CD4+ and CD8+ T cells were thawed, and T cells were assessed for intracellular S6 phosphorylation, a ribosomal protein and marker of mTOR inhibition, and co-stained for surface expression of CD4 or CD8 and for CCR7 and CD45RA as markers of memory subsets. pS6 expression in live CD8+ T cells by memory subsets was shown by the expression of CCR7 and CD45RA as shown in FIG. 30A.
# CD4+ and CD8+ T cells [1] = experiment: Percent viable and total live cells of T cell composition produced with Compound 63; type: cell-based, human; conditions: 1 μM Compound 63 during process
# Protocol: as §2, §3
# [2] = system: anti-idiotype (ID) antibody against the anti-CD19 CAR; experiment: Long-term 12 day stimulation with anti-idiotype antibody beads; type: cell-based, human; conditions: 12 days anti-ID beads
# Source text: To further assess the functional activity of the cells, the generated T cell compositions were stimulated long-term over 12 days with beads conjugated with an anti-idiotype (ID) antibody against the anti-CD19 CAR, and expansion and survival of the cells were monitored (FIG. 31F, left panel) and total expansion metric calculated by area under the curve (FIG. 31F, right panel).
# CD4+ and CD8+ T cells [3] = experiment: Intracellular cytokines after PMA/Ionomycin and Golgi inhibitor; type: cell-based, human
# Protocol: as §1
structure (smiles),measurement,setting,value
"CC(C)c1ccccc1-n1c(=O)[nH]c2c(C(N)=O)nc(-c3cccc(O)c3)nc21 [Compound 63, 2-(3-hydroxyphenyl)-9-(2-isopropylphenyl)-8-oxo-8,9-dihydro-7H-purine-6-carboxamide]",phenotypic subset profile by CD27 and/or CCR7,CD27 and CCR7,did not substantially alter the phenotypic subset profile of the cells
same,intracellular caspase expression,CAR-T cells,less intracellular caspase expression
same,pS6 mean fluorescence intensity (marker of mTOR inhibition),mTOR,decreased the mean fluorescence intensity of stimulated memory T cell subsets
same,percent viable cells or total live cells,CD4+ and CD8+ T cells [1],did not impact the percent viable cells or the total live cells
same,expansion and survival after long-term CAR-specific stimulation,[2],improved function of the T cells was observed following long-term CAR-specific stimulation
same,"level of intracellular cytokines IL2, IFNg, or TNF",CD4+ and CD8+ T cells [3],substantially improved
